SMILES | melting point [°C]
CC(C)N(C(=O)Cn1cncn1)c1ccccc1 | 125
CCCN1C(=O)N(CCC)C(=O)C2(CC=C3C(CCC4=Cc5c(cnn5-c5ccc(F)cc5)CC43C)O2)C1=O (stereo not drawn) | 81 to 82
O=C1c2ccccc2C2(O)Oc3cc4ccccc4cc3C12O (stereo not drawn) | 220 to 221
CC(=O)OCC=Cc1ccccc1S(N)(=O)=O | 94 to 95
CCOC(=O)c1cn(CC)c2c(C)c(F)c(F)cc2c1=O | 177 to 180
COc1ccc(-c2c(Cl)c(CN3C(=O)CCC3=O)nc3sc4c(c23)CC(C)(C)C(=O)C4(F)F)cc1 | 200 to 202
CCCCNC(=O)C1=C(C(=O)Nc2cc(OC3CCCC3)c(Cl)cc2F)CCCC1 | 142 to 144
Clc1ccc(C2=CCCC2)cn1 | 59 to 60
ON=C1C[C@H]2CC=CC[C@H]2C1 | 100 to 103
CC1Cc2cccc(-c3ccccc3)c2C(=O)O1 (stereo not drawn) | 140 to 142
NC(=O)C(OCc1ccc(Cl)cc1)(C(F)(F)F)C(F)(F)F | 94 to 95
C(=Cc1ccc2c(c1)Sc1ccccc1N2c1ccccc1)c1ccc(-c2ccc(C=Cc3ccc4c(c3)Sc3ccccc3N4c3ccccc3)cc2)cc1 | 278 to 290
CC(c1oc2ccccc2c(=O)c1-c1cccc(F)c1)n1nc(-c2cncnc2)c2c(N)ncnc21 (stereo not drawn) | 207 to 211
O=C1C(CCS(=O)c2ccccc2)C(=O)N(c2ccccc2)N1c1ccccc1 (stereo not drawn) | 130 to 132
Cc1c(C(=O)Nc2ccc(N3CCC(N4CCOCC4)CC3)c(C#N)c2)cnn1-c1ccc(Cl)cc1 | 249 to 250
Cc1ccc([C@@H](O)[C@@H]2[C@@H](C)CCCC2(C)C)cc1 | 78 to 79
CCOC(=O)/C(F)=C/c1ccc(N2C[C@H](CNC(C)=O)OC2=O)cc1 | 161 to 163
Cc1ccc(S(=O)(=O)N2CCCC2c2ccsc2)cc1 (racemic) | 114

Next, values leading:

melting point [°C] | SMILES
271 to 272 | CC(C)CN1C(=O)[C@@H](CC(N)=O)O[C@H](c2ccccc2Cl)c2cc(Cl)ccc21 (relative stereo)
122 to 123 | CCOC(=O)/C=C/c1cc(C(C)C)c(OC(C)=O)c2c(C)cccc12
185 to 186 | O=C(c1ccccc1)c1cnn2c(-c3ccncc3)ccnc12
135 to 139 | CCCCC(OC(=O)Nc1ccc(-c2ncn(-c3ccc(OC(F)(F)F)cc3)n2)cc1)C(=O)OCC (stereo not drawn)
162 to 163 | COc1cc2cn(N3C(C)CCCC3C)nc2cc1OC (stereo not drawn)
82 to 85 | COc1ccc(C(=O)C=CN(C)C)cc1
65 to 66 | O=[N+]([O-])c1ccc(-c2cc(-c3ccc(Cl)cc3)[nH]c2C(F)(F)F)s1
124 to 125 | CC(C)(C)c1cc(-c2csc(CNC(=O)Cc3ccccc3)n2)cc(C(C)(C)C)c1O
104 | CC1(C)OC(C=Cc2cc3ccccc3s2)=CC1=O
214 to 216 | COc1cc(C(=O)CC(c2ccncc2)C(C)(C)[N+](=O)[O-])cc(OC)c1OC (stereo not drawn)
122 to 124 | COc1ccc(C(=O)CC(SC(C)=O)C(=O)O)cc1 (stereo not drawn)
153 to 154 | CCc1cc(Nc2ccc(N)cc2)n2nccc2n1
> 310 | COc1ccc(Nc2nc(O)nc(NC3CCCCCC3)n2)cc1Cl
129 to 131 | Cc1c(OCC(F)(F)F)ccnc1CS(=O)c1nc2ccccc2n1NCC(C)C (stereo not drawn)
178 to 180 | C#Cc1ccnc(-c2ccc(-c3cc(C#C)ccn3)c([N+](=O)[O-])c2)c1
295 to 297 | CCOc1ccccc1-c1nc2c(C(N)=O)ccnc2c(=O)[nH]1
260 to 262 | Nc1c(-c2ccc(C(F)(F)F)cc2)nc2ccc(F)cc2c1C(=O)O
122 to 123 | CCOC(=O)c1ccc(NCCOc2ccc(F)cc2)cc1
110 to 111 | CCCCCCCCCCCCCCCCCCOc1cc(OCCCOc2ccc(S(C)(=O)=O)cc2)cc(C(=O)O)c1
162 | Cc1cc(Nc2ccnc(Nc3ccc(S(=O)(=O)N4CCC(C(O)c5ccncc5)CC4)cc3)n2)ccc1F (stereo not drawn)

Reference: a melting point compilation (Tetko et al.; mined from patent text by program, amines drawn as free bases though some values may be those of a salt)
